We go through 14 compounds from patent US4337207A, “Biologically active catecholamine derivatives” (Regents of the University of California, priority 1980, dated 1982).

The subject of one test is S49 mouse lymphoma cells. As to the kind of experiment: cAMP formation in S49 lymphoma cells (β-adrenergic agonist activity). Type of test: cell-based. Conditions: for EC50: Mus musculus, catecholamine derivative, read-out: KA (concentration of the catecholamine for approximately half maximal stimulation of cAMP concentration); for activity greater than that of isoproterenol / activity in words: S49 cell assay; for activity greater than that of isoproterenol: relative to isoproterenol. The text has this: The in vitro testing of cAMP formation in S49 lymphoma cells is a well documented and accepted test for indicating and anticipating β-adrenergic activity in the mammalian body.
Such testing procedures and their significance has been set forth in a number of prior publications, e.g. Shear et al., J. Biol. Chem.; 251, 7572 (1976); Coffino, et al., In Vitro, 14, No. 1, 140 et.seq. (1978); and in Johnson, et al.; Molecular Pharmacology, 15, 16-27 (1978). The tests measure increased cyclic adenosine monophosphate (cAMP) concentration in the S49 cells. In Table 1, KA indicates the concentration of the catecholamine for approximately half maximal stimulation of cAMP concentration. Emax is a measure of the maximal response (cAMP concentration) of the S49 cells to the respective catecholamines regardless of how high the concentration of the catecholamines may become. The Table compares the response of the cells to the particular catecholamine derivatives with the cells' response to isoproterenol. Thus a measure of the relative biological activity can be obtained.
For orientation: Cyclic AMP is a second messenger, typically raised through Gs and lowered through Gi signalling.

In the next test the target is T1, C6 cells (Rattus norvegicus, UniProt P18090).
T1 construct: endogenous in cells; host or cells: C6 cells
As to the kind of experiment: KD in C6 cells. It is filed as binding. The note with it: relative to isoproterenol. The text has this: (§1) A large dependence of activity on the length of the methylene chain i.e., (CH2)n is seen with the toluides (Compounds 10-14). Of the compounds noted, peak activity is seen in the case of n=4 (Compound 12), which has an activity approximately two orders of magnitude greater than that of isoproterenol.

In the next test the test system is rats. As to the kind of experiment: blood pressure and heart rate changes in rats on administration of the drug. It is filed as in vivo. The note with it: rat, relative to isoproterenol.
In a further test the target is T2, S49 cells (Mus musculus, UniProt P18762).
T2 construct: endogenous in cells; host or cells: S49 lymphoma cells
As to the kind of experiment: KD in S49 cells. The note with it: relative to isoproterenol. Type of test: binding.
From the text: as §1

The structures appear in SMILES notation.

T1 sequence (P18090 whole entry): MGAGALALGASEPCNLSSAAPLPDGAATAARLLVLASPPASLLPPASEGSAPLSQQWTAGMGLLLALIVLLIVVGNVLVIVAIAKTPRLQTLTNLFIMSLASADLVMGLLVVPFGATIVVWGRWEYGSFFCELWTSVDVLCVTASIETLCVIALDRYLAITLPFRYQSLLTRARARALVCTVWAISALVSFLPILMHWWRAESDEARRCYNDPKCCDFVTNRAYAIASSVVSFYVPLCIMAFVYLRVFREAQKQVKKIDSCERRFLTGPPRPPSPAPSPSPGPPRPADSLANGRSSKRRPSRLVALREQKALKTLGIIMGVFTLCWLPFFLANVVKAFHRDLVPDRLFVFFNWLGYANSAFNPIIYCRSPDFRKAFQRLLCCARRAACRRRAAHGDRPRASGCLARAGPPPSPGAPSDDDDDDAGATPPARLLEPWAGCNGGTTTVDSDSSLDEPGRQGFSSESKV
T2 sequence (P18762 whole entry): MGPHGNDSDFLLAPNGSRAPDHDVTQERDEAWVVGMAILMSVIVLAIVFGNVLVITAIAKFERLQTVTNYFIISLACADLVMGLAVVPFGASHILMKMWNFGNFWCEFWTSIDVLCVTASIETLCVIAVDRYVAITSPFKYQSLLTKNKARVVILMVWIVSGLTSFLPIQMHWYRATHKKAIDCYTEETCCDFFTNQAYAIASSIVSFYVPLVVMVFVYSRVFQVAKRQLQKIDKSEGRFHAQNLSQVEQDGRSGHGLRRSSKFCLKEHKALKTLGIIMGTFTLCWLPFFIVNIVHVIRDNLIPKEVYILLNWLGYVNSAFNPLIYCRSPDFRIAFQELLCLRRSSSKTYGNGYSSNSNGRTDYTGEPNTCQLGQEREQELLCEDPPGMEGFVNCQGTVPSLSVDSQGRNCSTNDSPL

With `CCCCNC(=O)CCCCC(C)NCC(O)c1ccc(O)c(O)c1` (stereo not shown) [Compound 19], the EC50 in the test on S49 mouse lymphoma cells (S49 lymphoma cells) was 0.18 nM. For `CC(CCCCCC(=O)O)NCC(O)c1ccc(O)c(O)c1` (stereo not shown) [Compound 9], the EC50 with S49 mouse lymphoma cells (S49 lymphoma cells) came out at 350 nM.

`Cc1ccc(NC(=O)CCC(C)NCC(O)c2ccc(O)c(O)c2)cc1` (stereo not shown) [Compound 10]: in the test with S49 mouse lymphoma cells (S49 lymphoma cells), the EC50 stood at 3.5 nM. Turning to `CCCCc1ccc(NC(=O)CCCCC(C)NCC(O)c2ccc(O)c(O)c2)cc1` (stereo not shown) [Compound 15], the “activity greater than that of isoproterenol” value in the test with S49 mouse lymphoma cells is reported as “at least 3 orders of magnitude”.

Consider `CC(CCC(=O)O)NCC(O)c1ccc(O)c(O)c1` (stereo not shown) [Compound 6], for which the EC50 in the test with S49 mouse lymphoma cells (S49 lymphoma cells) turned out to be 1600 nM. Same read-out and setting: the value for `CC(CCCCC(=O)NC1CCCCC1)NCC(O)c1ccc(O)c(O)c1` (stereo not shown) [Compound 20] was 0.26 nM. As to `CC(CCCCC(=O)Nc1ccc(C(F)(F)F)cc1)NCC(O)c1ccc(O)c(O)c1` (stereo not shown) [Compound 17], the “activity greater than that of isoproterenol” value with S49 mouse lymphoma cells is on record as “at least 3 orders of magnitude”. Take `Cc1ccc(NC(=O)CCCCC(C)NCC(O)c2ccc(O)c(O)c2)cc1` (stereo not drawn) [Compound 12, 6-(β-3,4-dihydroxyphenyl-β-hydroxy)-ethylamino Heptanoic Acid p-Toluide]: the “KD lower than for isoproterenol” value at C6 cells and at S49 cells was 2 orders of magnitude throughout. Moreover, the “times more active than isoproterenol” value in the test on rats is recorded as 50-70 times. Further, the EC50 with S49 mouse lymphoma cells (S49 lymphoma cells) is 0.056 nM. For the same compound, in the test with S49 mouse lymphoma cells, the activity in words result was “peak activity”.

Regarding `CC(CCCC(=O)O)NCC(O)c1ccc(O)c(O)c1` (stereo not shown) [Compound 7], in the test on S49 mouse lymphoma cells (S49 lymphoma cells), the EC50 amounted to 370 nM.

Turning to `CC(CCCCC(=O)O)NCC(O)c1ccc(O)c(O)c1` (stereo not drawn) [Compound 8, 6-(β-3,4-Dihydroxyphenyl-β-hydroxy)-ethylamino heptanoic acid], in the test with S49 mouse lymphoma cells (S49 lymphoma cells), the EC50 was found to be 350 nM. Still for that read-out and setting: the value for `Cc1ccc(NC(=O)CCCCCC(C)NCC(O)c2ccc(O)c(O)c2)cc1` (stereo not shown) [Compound 14] was 22 nM. Still for that read-out and setting: the same measure for `Cc1ccc(NC(=O)CCCC(C)NCC(O)c2ccc(O)c(O)c2)cc1` (stereo not shown) [Compound 11]: 8 nM.

In the case of `COc1ccc(NC(=O)CCCCC(C)NCC(O)c2ccc(O)c(O)c2)cc1` (stereo not shown) [Compound 16], the EC50 in the test on S49 mouse lymphoma cells (S49 lymphoma cells) was determined as 13 nM. Besides, in the test on S49 mouse lymphoma cells, the activity in words entry is given as “approximately the same activity as isoproterenol”. In the case of `CC(C)NCC(O)c1ccc(O)c(O)c1` (racemic) [d,l-Isoproterenol, reference compound], in the test on S49 mouse lymphoma cells (S49 lymphoma cells, comparison with the derivative on the same table line), the “KA of d,l-isoproterenol” value turned out to be 45 pM.
